# Assay results taken from paper PMC4710522, “A Novel Triazolopyridine-Based Spleen Tyrosine Kinase Inhibitor That Arrests Joint Inflammation” (PLoS ONE, 2016).
# Columns and labels:
# AMPK_r = experiment: SelectScreen kinase assay; type: biochemical, rat; conditions: 3 µM, KM ATP
# Experimental: (§1) Syk kinase mode of inhibition studies, including parameters described in Fig 1, were conducted on the LC3000 platform by Caliper Life Sciences (Hopkinton, MA) according to standard protocols developed by the supplier. […] Non-kinase enzyme assays and GPCR, ion channel, and transporter binding assays were run by CEREP (France). Non-GLP manual patch clamp hERG assays were run by ChanTest (Cleveland, Ohio). Vivid® Assay kits (Life Technologies) were used to measure the cytochrome P450 inhibition of the compound against CYP3A, CYP2C9, CYP2C19, CYP2D6, and CYP1A2, as described.
# Kinase activity was measured using either the Z’-Lyte® or the Adapta® protocols as part of the SelectScreen™ profiling service offered at Life Technologies (Grand Island, NY). For the single point measurements (Part A), CC-509 was kept constant at 3 µM while ATP concentrations [ATP] used were at the KM for ATP (KM ATP) for that specific enyzme, at 10 or 100 µM ATP (10 ATP or 100 ATP, respectively), as indicated. Values expressed as percent control (% control) relative to DMSO-only wells (uninhibited, 100%).
# Kinase activity was measured using either the Z’-Lyte® or the Adapta® protocols as part of the SelectScreen™ profiling service offered at Life Technologies (Grand Island, NY). […] Values expressed as percent control (% control) relative to DMSO-only wells (uninhibited, 100%).
# c-RAF_h = target: T1, c-RAF_h (Homo sapiens, UniProt P04049); experiment: SelectScreen kinase assay; type: biochemical; conditions: 100 µM ATP, read-out: % control
# T1 construct: purchased Life Technologies (Invitrogen) SelectScreen, Z'-LYTE / Adapta
# How it was run: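 Single-point inhibition at 3 µM compound. ATP: KM, 10 µM or 100 µM per enzyme as indicated. Output = % control (DMSO = 100%).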
# LRRK2 G2019S_h = target: T2, LRRK2 G2019S_h (Homo sapiens, UniProt Q5S007, G2019S); experiment: SelectScreen kinase assay; type: biochemical; conditions: KM ATP, read-out: % control
# T2 construct: purchased Life Technologies (Invitrogen) SelectScreen, Z'-LYTE / Adapta
# MSK2_h = target: T3, MSK2_h (Homo sapiens, UniProt O75676); experiment: SelectScreen kinase assay; type: biochemical; conditions: KM ATP, read-out: % control
# T3 construct: purchased Life Technologies (Invitrogen) SelectScreen, Z'-LYTE / Adapta
# PKC-iota_h = target: T4, PKC-iota_h (Homo sapiens, UniProt P41743); experiment: SelectScreen kinase assay; type: biochemical; conditions: KM ATP, read-out: % control
# T4 construct: purchased Life Technologies (Invitrogen) SelectScreen, Z'-LYTE / Adapta
# RetA = target: T5, RetA (Homo sapiens, UniProt P07949); experiment: Ret A HTRF assay; type: biochemical; conditions: in-house, mean ± SD
# T5 construct: purchased Life Technologies PV3819
# Experimental: CC-509 was prepared at a concentration of 1.5 mM in DMSO followed by 3-fold dilutions in Greiner […] polypropylene plates. A 1:4 dilution of compounds by 8 μL/well transfer from the polypropylene plates to 24 μL/well Assay Buffer (50 mM HEPES pH 7.6, 1 mM DTT, 10 mM MgCl2, 0.01% Triton X-100, 0.01% BSA and 0.1 mM EDTA) in Costar 3710 384 well black plates was then performed. Kinases (13 μL/well of 31 ng/ml RetA (Life Technologies, Grand Island, NY PV3819) in Assay Buffer) or Assay Buffer only (background controls) were added to Costar 3710 384-well black plates for the HTRF assays and compound (2 μL/ well) was added from the 1:4 dilution plate. […] Time resolved fluorescence was read in assay plates on a PerkinElmer EnVision. […] The IC50 value was determined as described in the data fitting section below.
# For the TEL-Syk assay, the intensity values for the 700 and 800 channel were exported as text files in ActivityBase (IDBS, Guildford, UK) to derive the ratios that reflect kinase activity. […] For the JAK2 HEL and Ramos NFAT β-lactamase assays, the fluorescence values obtained at 460 nm and 530 nm were exported into ActivityBase to calculate response ratios. […] Evans blue dye extravasation was expressed as mean ± SEM and % inhibition for the test article groups was normalized to the cromolyn positive control. […] Data is expressed as mean ± SEM of each group with n = 6–12. […]
# Cyp1A2 = target: T6, Cyp1A2 (Homo sapiens, UniProt P05177); experiment: Vivid cytochrome P450 inhibition assay; type: in vitro ADME; conditions: data not shown
# T6 construct: purchased Life Technologies (Vivid Assay kits)
# Experimental: as §1
# Cyp2C19 = target: T7, Cyp2C19 (Homo sapiens, UniProt P33261); experiment: Vivid cytochrome P450 inhibition assay; type: in vitro ADME; conditions: data not shown
# T7 construct: purchased Life Technologies (Vivid Assay kits)
# Experimental: as §1
# Cyp2C9 = target: T8, Cyp2C9 (Homo sapiens, UniProt P11712); experiment: Vivid cytochrome P450 inhibition assay; type: in vitro ADME; conditions: data not shown
# T8 construct: purchased Life Technologies (Vivid Assay kits)
# Experimental: as §1
# Cyp2D6 = target: T9, Cyp2D6 (Homo sapiens, UniProt P10635); experiment: Vivid cytochrome P450 inhibition assay; type: in vitro ADME; conditions: data not shown
# T9 construct: purchased Life Technologies (Vivid Assay kits)
# Experimental: as §1
# Cyp3A4 = target: T10, Cyp3A4 (Homo sapiens, UniProt P08684); experiment: Vivid cytochrome P450 inhibition assay; type: in vitro ADME; conditions: data not shown
# T10 construct: purchased Life Technologies (Vivid Assay kits)
# Experimental: as §1
# T9 sequence (P10635 whole entry): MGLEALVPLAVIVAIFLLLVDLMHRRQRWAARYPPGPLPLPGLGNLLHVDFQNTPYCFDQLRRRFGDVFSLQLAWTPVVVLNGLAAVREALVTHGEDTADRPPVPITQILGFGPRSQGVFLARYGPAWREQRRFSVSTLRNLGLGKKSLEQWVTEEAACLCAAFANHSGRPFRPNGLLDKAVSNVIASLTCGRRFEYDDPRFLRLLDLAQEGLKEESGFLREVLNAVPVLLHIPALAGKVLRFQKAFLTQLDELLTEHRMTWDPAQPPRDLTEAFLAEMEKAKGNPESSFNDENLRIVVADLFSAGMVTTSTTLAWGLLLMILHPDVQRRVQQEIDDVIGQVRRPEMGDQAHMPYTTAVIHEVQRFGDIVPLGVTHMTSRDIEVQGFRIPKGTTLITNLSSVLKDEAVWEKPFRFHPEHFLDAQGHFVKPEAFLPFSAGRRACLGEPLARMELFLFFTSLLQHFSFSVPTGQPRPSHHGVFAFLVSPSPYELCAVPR
# T4 sequence (P41743 whole entry): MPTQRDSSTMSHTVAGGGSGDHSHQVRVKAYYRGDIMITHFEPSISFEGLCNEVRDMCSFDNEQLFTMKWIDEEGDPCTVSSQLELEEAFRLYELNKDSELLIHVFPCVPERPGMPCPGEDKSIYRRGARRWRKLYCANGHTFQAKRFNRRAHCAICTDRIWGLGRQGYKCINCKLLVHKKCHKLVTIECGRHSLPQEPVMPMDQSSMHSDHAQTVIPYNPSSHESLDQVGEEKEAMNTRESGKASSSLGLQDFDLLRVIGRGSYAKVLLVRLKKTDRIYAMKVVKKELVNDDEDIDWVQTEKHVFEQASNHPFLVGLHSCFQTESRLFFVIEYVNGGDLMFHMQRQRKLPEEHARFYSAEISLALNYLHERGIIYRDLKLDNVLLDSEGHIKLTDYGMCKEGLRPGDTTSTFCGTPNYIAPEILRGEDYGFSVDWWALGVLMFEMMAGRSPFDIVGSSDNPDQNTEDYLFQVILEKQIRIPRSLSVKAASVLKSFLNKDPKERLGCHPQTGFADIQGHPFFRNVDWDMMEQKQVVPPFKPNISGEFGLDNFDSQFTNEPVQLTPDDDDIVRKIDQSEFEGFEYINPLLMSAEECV
# T3 sequence (O75676 whole entry): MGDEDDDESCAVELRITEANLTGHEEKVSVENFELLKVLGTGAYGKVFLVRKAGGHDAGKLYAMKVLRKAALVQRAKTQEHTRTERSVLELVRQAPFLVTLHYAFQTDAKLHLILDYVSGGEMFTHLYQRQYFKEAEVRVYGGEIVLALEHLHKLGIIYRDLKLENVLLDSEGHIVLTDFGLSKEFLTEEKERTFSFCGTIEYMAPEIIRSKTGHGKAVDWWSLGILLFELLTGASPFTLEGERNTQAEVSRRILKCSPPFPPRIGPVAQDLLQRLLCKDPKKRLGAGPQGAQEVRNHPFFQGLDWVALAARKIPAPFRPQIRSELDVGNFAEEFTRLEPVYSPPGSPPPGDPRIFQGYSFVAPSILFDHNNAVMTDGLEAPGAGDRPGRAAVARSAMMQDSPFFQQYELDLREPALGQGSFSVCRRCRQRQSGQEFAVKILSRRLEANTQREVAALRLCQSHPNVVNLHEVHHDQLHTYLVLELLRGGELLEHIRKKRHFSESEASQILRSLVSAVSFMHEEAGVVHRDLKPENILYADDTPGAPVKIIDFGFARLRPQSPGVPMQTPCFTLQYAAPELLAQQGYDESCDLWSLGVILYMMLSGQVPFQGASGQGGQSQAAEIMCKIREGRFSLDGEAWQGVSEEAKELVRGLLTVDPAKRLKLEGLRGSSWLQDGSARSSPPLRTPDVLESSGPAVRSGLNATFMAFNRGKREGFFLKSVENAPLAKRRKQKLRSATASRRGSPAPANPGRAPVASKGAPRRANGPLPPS
# T7 sequence (P33261 whole entry): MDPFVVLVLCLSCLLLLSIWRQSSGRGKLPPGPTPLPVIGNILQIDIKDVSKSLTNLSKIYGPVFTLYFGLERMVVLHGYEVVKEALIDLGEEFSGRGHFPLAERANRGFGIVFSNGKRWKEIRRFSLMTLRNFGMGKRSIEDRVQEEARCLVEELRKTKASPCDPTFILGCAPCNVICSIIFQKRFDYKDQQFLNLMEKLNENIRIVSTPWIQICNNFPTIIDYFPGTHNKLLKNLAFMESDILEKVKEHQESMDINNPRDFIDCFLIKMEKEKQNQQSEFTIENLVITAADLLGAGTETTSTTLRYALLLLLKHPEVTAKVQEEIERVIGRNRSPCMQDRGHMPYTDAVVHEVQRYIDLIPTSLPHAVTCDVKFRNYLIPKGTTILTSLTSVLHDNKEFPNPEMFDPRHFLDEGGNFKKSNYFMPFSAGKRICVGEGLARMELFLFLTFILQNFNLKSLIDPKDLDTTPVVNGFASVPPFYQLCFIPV
# T5 sequence (P07949 29-1114): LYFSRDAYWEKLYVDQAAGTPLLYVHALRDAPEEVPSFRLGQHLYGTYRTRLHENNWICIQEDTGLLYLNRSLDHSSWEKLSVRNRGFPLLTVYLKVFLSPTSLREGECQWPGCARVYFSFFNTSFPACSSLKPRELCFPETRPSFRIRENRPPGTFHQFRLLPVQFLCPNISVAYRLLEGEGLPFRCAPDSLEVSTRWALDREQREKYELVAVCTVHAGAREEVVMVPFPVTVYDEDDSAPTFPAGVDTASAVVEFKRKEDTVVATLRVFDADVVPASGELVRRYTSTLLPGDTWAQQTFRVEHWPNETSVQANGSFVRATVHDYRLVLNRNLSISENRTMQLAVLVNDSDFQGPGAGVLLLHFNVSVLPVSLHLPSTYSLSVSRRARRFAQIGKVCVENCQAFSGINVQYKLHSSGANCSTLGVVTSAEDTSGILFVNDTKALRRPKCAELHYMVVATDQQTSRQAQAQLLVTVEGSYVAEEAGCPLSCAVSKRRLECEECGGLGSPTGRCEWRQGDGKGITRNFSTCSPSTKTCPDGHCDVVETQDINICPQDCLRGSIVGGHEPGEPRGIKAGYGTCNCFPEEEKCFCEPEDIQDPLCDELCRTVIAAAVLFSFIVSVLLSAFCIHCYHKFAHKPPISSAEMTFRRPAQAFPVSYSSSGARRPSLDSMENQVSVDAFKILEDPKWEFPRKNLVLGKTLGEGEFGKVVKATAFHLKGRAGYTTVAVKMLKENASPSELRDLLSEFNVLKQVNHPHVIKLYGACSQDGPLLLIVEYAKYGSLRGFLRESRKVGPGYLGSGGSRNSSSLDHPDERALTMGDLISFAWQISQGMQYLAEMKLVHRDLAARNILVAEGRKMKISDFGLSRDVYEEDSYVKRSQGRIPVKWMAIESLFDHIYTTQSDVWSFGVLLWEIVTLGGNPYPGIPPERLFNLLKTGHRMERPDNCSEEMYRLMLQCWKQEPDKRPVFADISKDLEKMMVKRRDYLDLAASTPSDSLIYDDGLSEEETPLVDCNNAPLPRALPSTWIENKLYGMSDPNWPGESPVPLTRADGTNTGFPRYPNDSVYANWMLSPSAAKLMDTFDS
# T8 sequence (P11712 whole entry): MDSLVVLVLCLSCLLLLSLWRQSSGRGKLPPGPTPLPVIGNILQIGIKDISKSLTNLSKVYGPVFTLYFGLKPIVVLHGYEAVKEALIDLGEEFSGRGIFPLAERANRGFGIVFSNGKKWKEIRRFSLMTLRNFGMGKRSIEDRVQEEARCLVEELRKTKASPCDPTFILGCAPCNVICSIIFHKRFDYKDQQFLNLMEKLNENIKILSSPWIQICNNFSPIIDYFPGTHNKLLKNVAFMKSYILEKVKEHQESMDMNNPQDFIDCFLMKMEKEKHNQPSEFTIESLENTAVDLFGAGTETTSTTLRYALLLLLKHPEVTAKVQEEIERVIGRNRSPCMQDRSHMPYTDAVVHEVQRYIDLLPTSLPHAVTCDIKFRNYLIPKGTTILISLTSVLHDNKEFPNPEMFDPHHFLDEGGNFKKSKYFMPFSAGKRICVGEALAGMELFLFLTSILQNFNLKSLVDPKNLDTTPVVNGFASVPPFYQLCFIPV
# T10 sequence (P08684 whole entry): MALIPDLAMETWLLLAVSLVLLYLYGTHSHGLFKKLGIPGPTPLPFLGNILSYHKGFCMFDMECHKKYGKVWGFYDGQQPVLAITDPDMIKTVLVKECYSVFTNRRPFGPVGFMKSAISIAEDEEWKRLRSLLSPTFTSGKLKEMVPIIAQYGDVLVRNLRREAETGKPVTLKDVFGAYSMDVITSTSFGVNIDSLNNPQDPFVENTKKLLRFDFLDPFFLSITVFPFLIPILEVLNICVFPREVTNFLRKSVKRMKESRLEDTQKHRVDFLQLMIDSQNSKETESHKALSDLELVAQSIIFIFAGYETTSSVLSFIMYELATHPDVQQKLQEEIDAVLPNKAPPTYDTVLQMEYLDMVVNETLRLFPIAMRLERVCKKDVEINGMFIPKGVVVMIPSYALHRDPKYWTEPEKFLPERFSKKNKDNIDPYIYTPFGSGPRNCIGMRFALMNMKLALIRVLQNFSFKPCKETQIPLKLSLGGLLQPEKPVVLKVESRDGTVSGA
# T6 sequence (P05177 whole entry): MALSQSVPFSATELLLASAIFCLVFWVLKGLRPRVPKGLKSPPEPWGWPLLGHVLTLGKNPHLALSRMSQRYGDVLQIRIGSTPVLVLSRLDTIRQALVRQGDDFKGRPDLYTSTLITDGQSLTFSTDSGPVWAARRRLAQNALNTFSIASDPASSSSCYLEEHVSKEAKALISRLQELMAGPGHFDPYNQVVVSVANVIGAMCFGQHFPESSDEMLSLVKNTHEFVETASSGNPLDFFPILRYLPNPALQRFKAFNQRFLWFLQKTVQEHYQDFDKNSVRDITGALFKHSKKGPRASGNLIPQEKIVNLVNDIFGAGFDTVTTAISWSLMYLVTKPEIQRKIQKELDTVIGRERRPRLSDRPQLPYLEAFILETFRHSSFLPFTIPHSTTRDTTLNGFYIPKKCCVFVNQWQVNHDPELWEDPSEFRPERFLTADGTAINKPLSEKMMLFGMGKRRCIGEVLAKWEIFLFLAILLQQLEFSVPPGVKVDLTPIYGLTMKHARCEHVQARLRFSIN
structure (smiles),measurement,setting,value
"c1cc(CC2CCOCC2)n2nc(Nc3ccc4c(NC5CCOCC5)n[nH]c4c3)nc2c1 [CC-509, [3-(2H-3,4,5,6-tetrahydropyran-4-ylamino)(1H-indazol-6-yl)][5-(2H-3,4,5,6-tetrahydropyran-4-ylmethyl)(2H-1,2,4-triazolo[1,5-a]pyridin-2-yl)]amine]",% control,AMPK_r,84%
same,remaining activity at 3 µM,c-RAF_h,70%
same,remaining activity at 3 µM,LRRK2 G2019S_h,4%
same,remaining activity at 3 µM,MSK2_h,81%
same,remaining activity at 3 µM,PKC-iota_h,88%
same,IC50,RetA,750 ± 190 nM
same,inhibition of Cyp450 activity,Cyp1A2,did not inhibit
same,inhibition of Cyp450 activity,Cyp2C19,did not inhibit
same,inhibition of Cyp450 activity,Cyp2C9,did not inhibit
same,inhibition of Cyp450 activity,Cyp2D6,did not inhibit
same,inhibition of Cyp450 activity,Cyp3A4,did not inhibit
